Results: patent publication US20160159861A1, “APJ Receptor Compounds” (priority 2013, published 2016)
Read-outs that look alike come from different tables or passages of the source. Peptide text beside a SMILES is read from it.

How the values were obtained:
rat peritoneal cells = assay: Ex vivo histamine release assay in rat peritoneal cells (vs. Compound 48/80); assay type: cell-based
Excerpt: More desirable pharmacological tolerability can include a decrease in an undesirable side effect (e.g., histamine release, an indicator of mast cell degranulation) without a significant loss in activity of the compound.
Screening of the variant G protein receptor compounds against a control compound for histamine release can be done following standard assays. The standard assay can include comparison to a control compound known to elicit a histamine response (e.g., 48/80 having CAS No. 94724-12-6). Such an assay using rat peritoneal cells is described herein for the APJ compounds.
Test compounds were assayed in the ex vivo histamine release assay using a 3-point dose response. Concentrations of total histamine contained in the cells is used to correct for variability in the numbers of mast cells in the lavage per well.
Resident peritoneal cells were harvested from naïve Sprague Dawley rats (male 200-300 gr, Charles River). Rats were euthanized by CO2 asphyxiation and a skin incision was made along the middle-line of the abdomen. Thirty milliliters of HBSS (HyClone, cat#SH 30268.01) containing 20 mM HEPES and 0.2% BSA (heretofore Assay Buffer) were injected intraperitoneally using a 30 mL syringe with the attached 18 gauge needle. The abdomen was gently lavaged for 1-2 min and 7-10 milliliters of the peritoneal lavage were carefully aspirated. Cell count in the peritoneal lavage was determined using Cellometer Auto T4 (Nexcelom Bioscience). The peritoneal cell count was adjusted to […] cells/mL in Assay Buffer. Rat peritoneal cells were kept at room temperature before and during the assay.
For the 10-point assay, 3-fold serial dilutions were prepared for each test compound in 100% DMSO in 96-well plates (Greiner Bio One, Ref#651261)—from 100 μM down to […]. For the 3-point assay, 10-fold serial dilutions were prepared in 100% DMSO at 100 μM, 10 μM and 1 μM concentrations. From this plate, 5 μL of compound were transferred to a new plate containing 45 μL Assay Buffer to generate a compound plate with 10× final concentrations in 10% DMSO with Assay Buffer. In the final plates, column 11 contained 1% DMSO for the low-histamine-releasing control.
Suspensions of the rat peritoneal cells (90 μL of 2.75×10^5 cells/mL; →25,000 cells per well) were introduced into each well of a new 96-well microtiter plate (Greiner Bio One, Ref#651261) and 10 μL aliquots of the serially diluted compounds were transferred to the cells in each well. The microtiter plate was incubated for 30 min at room temperature. Following incubation cells were spun down (500 rpm, 7 min) and supernatants were collected for further analysis. Supernatants were diluted 6 times with the assay buffer (15 μL to 75 μL, for 90 μL total) and released histamine content was determined using HTRF® Histamine assay kit (CisBio, cat#62HTMPEB). To measure the total histamine in each well, cells were lysed by addition of 15 μL 5% TritonX-100 to each well followed by incubation for 15 minutes. The plates were then spun at 3000 rpm for 5 minutes, and 10 μL of supernatant were diluted 9-fold in assay buffer (10 μL to 80 μL for 90 μL total) to make the “total” histamine plate. Histamine content was measured as described above for the “released” histamine values.
The standard positive control was Compound 48/80 (Enzo Life Sciences), a oligomeric polymer mixture produced by the condensation of N-methyl-p-methoxyphenethylamine with formaldehyde. The trimer is the most abundant in the mixture Compound 48/80 is used to promote mast cell degranulation and activates G proteins by a mechanism analogous to that of mastoparan. […] See references: T. Higashijima et al., J. Biol., Chem., 265 14176 (1990); M. Mousli et al., FEBS Lett., 259 260 (1990); K. Gietzen et al., Biochim. Biophys. Acta, 736 109 (1983); K. Gietzen, Biochem. J., 1983 216 611 and C. Bronner et al., Biochim. Biophys. Acta, 920 301(1987).

[1] = target: T1, human APJ receptor (hAPJ) (Homo sapiens, UniProt P35414); assay: HTRF cAMP assay: inhibition of NKH477-stimulated cAMP in HEK cells stably expressing hAPJ; assay type: cell-based; conditions: for % IA (cAMP inhibition, hAPJ HEK): intrinsic activity; for Ranking: composite class of EC50 (hAPJ), % IA and % histamine or formal (+) charge; for Emax: HEK293, read-out: % IA, bound stated
T1 construct: expressed in transfected cells
T1 sequence (P35414 1-380): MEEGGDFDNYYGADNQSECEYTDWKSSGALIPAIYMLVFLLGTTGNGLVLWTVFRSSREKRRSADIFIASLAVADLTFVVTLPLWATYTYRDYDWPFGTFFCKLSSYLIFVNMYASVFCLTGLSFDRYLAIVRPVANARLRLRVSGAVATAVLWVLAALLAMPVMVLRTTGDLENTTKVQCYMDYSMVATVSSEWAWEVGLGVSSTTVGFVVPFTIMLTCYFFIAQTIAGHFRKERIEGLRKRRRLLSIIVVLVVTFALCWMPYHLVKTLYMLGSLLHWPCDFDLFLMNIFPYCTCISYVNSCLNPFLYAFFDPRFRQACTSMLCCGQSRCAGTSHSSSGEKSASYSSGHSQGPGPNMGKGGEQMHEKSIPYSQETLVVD
How it was run: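 HEK cells stably expressing hAPJ, induced with 1 nG/mL doxycycline and seeded overnight at 40 k/well. cAMP read by HTRF competitive immunoassay using cryptate-labeled anti-cAMP antibody and d2-labeled cAMP.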

[2] = histamine release from rat peritoneal cells relative to Compound 48/80
[3] = EC50 (cAMP inhibition, hAPJ HEK), Table 6, hAPJ HEK cells, NKH477-stimulated cAMP
[4] = Table 6, hAPJ HEK cells, NKH477-stimulated cAMP, read-out: EC50 (cAMP inhibition, hAPJ HEK)
[5] = HTRF cAMP Assay, per data of Table 6
[6] = HTRF cAMP Assay, per data of Table 6, read-out: EC50 (hAPJ), inhibition of cAMP production, bound stated

Row | Structure (SMILES) | Histamine (% vs. 48/80) (rat peritoneal cells; [2]) | EC50 [1, 3] | % IA (cAMP inhibition, hAPJ HEK) ([1]; Table 6, hAPJ HEK cells) | Ranking [1] | Histamine (% vs. 48/80) (rat peritoneal cells) | EC50 [1, 4] | Emax [1, 5] | EC50 [1, 6] | inhibition of NKH477-stimulated increase in cAMP, dose dependent ([1]; concentration response curves, FIGS. 1 and 2, HEK cells stably expressing APJ)
1 | CCCCCCCCCCCCCCCC(=O)N[C@H](C(=O)N[C@H](C(=O)N1CCC[C@H]1C(=O)N[C@@H](Cc1ccccc1)C(=O)N[C@@H](CCCNC(=N)N)C(=O)N[C@@H](CO)C(=O)N[C@@H](CO)C(=O)N[C@@H](CCC(=O)O)C(=O)N1CCC[C@H]1C(=O)N[C@H](CCCCN)C(=O)N[C@@H](CCCNC(=N)N)C(=O)N[C@@H](CCCNC(=N)N)C(=O)N[C@@H](CO)C(=O)N[C@@H](C)C(=O)N[C@@H](CC(=O)O)C(=O)N[C@H](C(=O)N[C@@H](Cc1ccccc1)C(=O)N[C@H](C(N)=O)[C@@H](C)CC)[C@@H](C)CC)C(C)C)[C@@H](C)O [Compound 1] (HELM PEPTIDE1{[CCCCCCCCCCCCCCCC(=O)[*:2]].T.V.P.F.R.S.S.E.P.[dK].R.R.S.A.D.I.F.I.[am]}$$$$V2.0) | 53% | 0.004 µM | 57% | ** (EC50 25-50 nM (hAPJ), % IA 50-79% and either % histamine>35% or formal (+) charge>1) |  |  |  |  | 
2 | CCCCCCCCCCCCCCCC(=O)N[C@H](C(=O)N[C@H](C(=O)N[C@@H](Cc1ccccc1)C(=O)N[C@@H](CCCNC(=N)N)C(=O)N[C@@H](CO)C(=O)N[C@@H](CO)C(=O)N1CCC[C@H]1C(=O)N[C@@H](CCC(=O)O)C(=O)N[C@H](CCCCN)C(=O)N[C@@H](CCCNC(=N)N)C(=O)N[C@@H](CCCNC(=N)N)C(=O)N[C@@H](CO)C(=O)N1CCC[C@H]1C(=O)N[C@@H](C)C(=O)N[C@@H](CC(=O)O)C(=O)N[C@H](C(=O)N[C@@H](Cc1ccccc1)C(N)=O)[C@@H](C)CC)C(C)C)[C@@H](C)O [Compound 23] (HELM PEPTIDE1{[CCCCCCCCCCCCCCCC(=O)[*:2]].T.V.F.R.S.S.P.E.[dK].R.R.S.P.A.D.I.F.[am]}$$$$V2.0) |  |  | 63% | ** (EC50 25-50 nM (hAPJ), % IA 50-79% and either % histamine>35% or formal (+) charge>1) | 67% | 0.044 µM |  |  | 
3 | CCCCCCCCCCCCCCCC(=O)N1CCC[C@@H]1C(=O)N[C@H](C(=O)N[C@H](C(=O)N[C@@H](Cc1ccccc1)C(=O)N[C@@H](CCCNC(=N)N)C(=O)N[C@@H](CO)C(=O)N1CCC[C@@H]1C(=O)N[C@@H](CO)C(=O)N[C@@H](CCC(=O)O)C(=O)N[C@H](CCCCN)C(=O)N[C@@H](CCCNC(=N)N)C(=O)N[C@@H](CCCNC(=N)N)C(=O)N[C@@H](CO)C(=O)N[C@@H](C)C(=O)N[C@@H](CC(=O)O)C(=O)N[C@H](C(=O)N[C@@H](Cc1ccccc1)C(N)=O)[C@@H](C)CC)C(C)C)[C@@H](C)O [Compound 29, pTVFRSpSEkRRSADIF] (HELM PEPTIDE1{[CCCCCCCCCCCCCCCC(=O)[*:2]].[dP].T.V.F.R.S.[dP].S.E.[dK].R.R.S.A.D.I.F.[am]}$$$$V2.0) |  |  | 80% | **** (EC50≦25 nM (hAPJ), % IA≧80% and either % histamine>35% or formal (+) charge>1) | 47% | 0.02 µM | ≥ 80% | ≤ 0.025 µM | inhibited
4 | CCCCCCCCCCCCCCCC(=O)N[C@H](C(=O)N[C@H](C(=O)N[C@@H](Cc1ccccc1)C(=O)N[C@@H](CCC(N)=O)C(=O)N[C@@H](CO)C(=O)N[C@@H](CCC(=O)O)C(=O)N[C@H](CCCCN)C(=O)N[C@@H](CCCNC(=N)N)C(=O)N[C@@H](CCCNC(=N)N)C(=O)N[C@@H](CO)C(=O)N[C@@H](C)C(=O)N[C@@H](CC(=O)O)C(=O)N[C@@H](Cc1ccccc1)C(=O)N[C@H](C(N)=O)[C@@H](C)CC)C(C)C)[C@@H](C)O [Compound 16, TVFQSEkRRSADFI] (HELM PEPTIDE1{[CCCCCCCCCCCCCCCC(=O)[*:2]].T.V.F.Q.S.E.[dK].R.R.S.A.D.F.I.[am]}$$$$V2.0) |  |  | 78% | *** (EC50 25-50 nM (hAPJ), % IA 50-79% and either % histamine≦35% or formal (+) charge≦1) | 21% | 0.01 µM | 50 to 79% | 0.025 to 0.05 µM | 
5 | CCCCCCCCCCCCCCCC(=O)N[C@H](C(=O)N[C@H](C(=O)N[C@@H](Cc1ccccc1)C(=O)N[C@@H](CCCNC(=N)N)C(=O)N[C@@H](CO)C(=O)N[C@@H](CO)C(=O)N[C@@H](CCC(=O)O)C(=O)N[C@H](CCCCN)C(=O)N[C@@H](CCCNC(=N)N)C(=O)N[C@@H](CCCNC(=N)N)C(=O)N[C@@H](CO)C(=O)N[C@@H](C)C(=O)N[C@@H](CC(=O)O)C(=O)N[C@@H](Cc1ccc(-c2ccccc2)cc1)C(=O)N[C@@H](Cc1ccccc1)C(=O)N[C@H](C(N)=O)[C@@H](C)CC)C(C)C)[C@@H](C)O [Compound 11, TVFRSSEkRRSAD(Bip)FI] (HELM PEPTIDE1{[CCCCCCCCCCCCCCCC(=O)[*:2]].T.V.F.R.S.S.E.[dK].R.R.S.A.D.[O=C([C@H](Cc1ccc(-c2ccccc2)cc1)N[*:1])[*:2]].F.I.[am]}$$$$V2.0) |  |  | 76% | ** (EC50 25-50 nM (hAPJ), % IA 50-79% and either % histamine>35% or formal (+) charge>1) | 8% | 0.034 µM |  |  | 
6 | CCCCCCCCCCCCCCCC(=O)N[C@H](C(=O)N[C@H](C(=O)N[C@@H](Cc1ccccc1)C(=O)N[C@@H](CCCNC(=N)N)C(=O)N[C@@H](CO)C(=O)N[C@@H](CO)C(=O)N[C@@H](CCC(=O)O)C(=O)N[C@H](C)C(=O)N[C@@H](CCCNC(=N)N)C(=O)N[C@@H](CCCNC(=N)N)C(=O)N[C@@H](CO)C(=O)N[C@@H](C)C(=O)N[C@@H](CC(=O)O)C(=O)N[C@H](C(=O)N[C@@H](Cc1ccccc1)C(=O)N[C@H](C(N)=O)[C@@H](C)CC)[C@@H](C)CC)C(C)C)[C@@H](C)O [Compound 10] (HELM PEPTIDE1{[CCCCCCCCCCCCCCCC(=O)[*:2]].T.V.F.R.S.S.E.[dA].R.R.S.A.D.I.F.I.[am]}$$$$V2.0) | 3% | 0.039 µM | 106% | ** (EC50 25-50 nM (hAPJ), % IA 50-79% and either % histamine>35% or formal (+) charge>1) |  |  |  |  | 
